The results in this text go back to patent US12251383B2, “Methods and compositions for KRAS inhibitors” (The Board of Regents of the University of Texas System, priority 2019, dated 2025).

“Also recorded” adds a separate entry of the source.

One data set relates to KRAS^G12D. The data set is described as follows: Cell signaling (Western) in BHK cells expressing KRAS G12D. The class given is cell-based, hamster. As to conditions: BHK KRAS^G12D. The method, then:
(§1) Cell signaling. The inhibitory potential of compounds was tested in monoclonal Baby Hamster Kidney (BHK) cell lines stably expressing monomeric green fluorescence protein (mGFP)-tagged KRAS^G12D, K-Ras^G12V and HRAS^G12V. Cells were cultured in Dulbecco's Modified Eagle Medium (DMEM, Hyclone) supplemented with 10% v/v bovine calf serum and incubated with compound or vehicle (DMSO) for 3 h without serum. Cells were then harvested in lysis buffer (50 mM Tris (pH 7.5), 75 mM NaCl, 25 mM NaF, 5 mM MgCl2, 5 mM EGTA, 1 mM dithiothreitol, 100 μM NaVO4, 1% Nonidet P40 plus protease inhibitors) and subjected to Western analysis controlling protein loading by BCA (bicinchoninic acid) assay. Lysates were resolved with Bio-Rad polyacrylamide TGX 10% gel, transferred to polyvinylidene fluoride (PVDF) membrane and immunoblotted using pan-AKT (2920S), GFP (2956S), pAKT^S473 (4060L), p-cRaf^S338 (9427S), p-ERK^T202/Y204 (4370L), ERK1/2 (4695S) or β-actin antibodies (Cell Signaling Technology). IC50 values were calculated with Prism 4-parameter fit.
Cell signaling assays identify compound 11 as a promising initial hit Western analysis was used to quickly assess the potential impact of the predicted hits on MAPK signaling, a major pathway mediated by KRAS. Specifically, ERK1/2 phosphorylation levels (p-ERK) were monitored in BHK cells stably expressing KRAS^G12D treated with vehicle (DMSO), the MEK inhibitor […] (U) or compound at four different concentrations (1-100 μM). […] Compounds 9 and 11 (structures for compounds 1-11 are provided in Appendix I, attached hereto), on the other hand, decreased p-ERK levels at concentrations ≥50 μM and ≥5 μM, respectively. To verify the latter observation, the experiments were repeated in an expanded concentration range starting from 0.1 μM. […] However, compound 9 (see Appendix I, attached hereto) increased p-ERK levels at 25 and 38 μM in contrast to the decrease observed at higher concentrations (FIG. S1B; see Appendix I, attached hereto).

Data set [1] addresses T1, KRAS^G12D-cRaf interaction (Homo sapiens, UniProt P01116, G12D).
T1 construct: expressed in transfected cells; host or cells: BHK (baby hamster kidney) cells, transient expression
In words: FLIM-FRET of GFP-KRAS G12D and RFP-cRaf in BHK cells. The class given is cell-based, hamster. The note with it: 2 μM. From the text:
[formula] where P1 is polarization of free KRAS, P2 is polarization of Raf-bound KRAS, c is the total concentration of KRAS, and x the total concentration of Raf^RBD. (FIG. 2B) Amount of GFP-KRAS^G12D pulled down by GST-Raf^RBD after treatment of cell lysates with compound at the concentrations indicated (representative Westerns are shown at the top). The RBD sequence length was 1-149 and 51-131 in the fluorescence polarization and pull-down assays, respectively. (FIG. 2C) GFP fluorescence lifetime from FLIM-FRET using cells expressing GFP-KRAS^G12D alone or with RFP-Raf, with or without treatment by 1 μM compound 11. Data are shown as mean±S.E; significance estimated by one-way analysis of variance.
Fluorescence lifetime imaging (FLIM)-fluorescence resonance energy transfer (FRET). FLIM-FRET experiments were carried out using a lifetime fluorescence imaging attachment (Lambert Instruments, The Netherlands) on an inverted microscope (43). BHK cells transiently expressing mGFP-tagged KRAS^G12D (donor), alone or with mRFP-tagged cRaf^WT (acceptor) (using 1:5 ratio), were prepared as indicated in each experiment. The samples were excited using a sinusoidally modulated 3 W 470 nm light-emitting diode at 40 MHz under epi-illumination. Fluorescein was used as a lifetime reference standard. […] The phase and modulation were determined from 12 phase settings using the manufacturer's software. […]

The test system of another data set is lung cancer cells. The data set is described as follows: Cell proliferation (CyQuant), lung cancer cells overall. The class given is cell-based. From the text: (FIG. 5A) Chemical structure of compounds 12, an analogue of 11 lacking the terminal methyl alcohol functional group. (FIG. 5B) Predicted binding pose of compound 12. (FIG. 5C) p-ERK and p-cRaf levels in BHK cells expressing KRAS^G12D treated with indicated concentrations of compound 12 or vehicle. (FIG. 5D) Proliferation profile of lung cancer cells upon treatment with increasing concentration of compound 12, monitored by a CyQuant assay. Data are averages over three independent experiments and error bars represent standard error. (FIG. 5E) GFP fluorescence lifetime from FLIM-FRET using cells expressing GFP-KRAS^G12D alone or together with RFP-cRaf, with or without treatment with 2 μM compound 12.
Cell proliferation. Potential effect of the ligands on cancer cell proliferation was tested in three lung cancer cells: SKLU-1, H1975 and H522. Cells were plated at ˜1,000 cell per well in a 96-well plate and maintained in full serum media with or without compound at 37° C. for 72 h changing the media with the compound every 24 h. Media with compound was prepared by serial dilution at concentrations indicated. Then cells were washed with PBS and frozen at −80° C. for a minimum of 24 h. Plates were thawed and CyQuant™ dye (in lysis buffer provided in the CyQuant™ cell proliferation assay kit, Invitrogen™) was added, and after a five-minute incubation, fluorescence (excitation: 480 nm emission: 520 nm) was measured with a Tecan Infinite M200 plate reader.

The nature of data set [2]: Solubility in DMSO and common solvents. The class given is physicochemical. The note with it: DMSO.
In another data set the test system is HRAS^G12V. In words: Cell signaling (Western) in BHK cells expressing HRAS G12V. The class given is cell-based, hamster. As to conditions: 10 μM. The method, then: as §1

As for `Cc1nn2c(N3CCN(C)CC3)cc(-c3ccccc3)nc2c1-c1ccccc1` [Compound 12], in the data set with KRAS^G12D, the “concentration at which p-ERK levels are decreased” value came out at 2 µM and the “effect on p-cRaf levels” value is “no effect”. Besides, the “KRAS-Raf interaction (FLIM-FRET)” value in data set [1] is listed as “does not affect”. In the data set on lung cancer cells, the “inhibition of cell proliferation relative to compound 11” value is “somewhat less effective”; the “selectivity between KRAS mutant and KRAS^WT lung cancer cells” value was “better selectively profile”. For the same compound, the solubility result in data set [2] is reported as “less soluble; also recorded: solubility issues”.
For the compound `N#CC(=C(/N)Sc1ccccc1N)/C(C#N)=C(\N)Sc1ccccc1N` [Compound U0126, reference compound], the “effect on MAPK signaling” value with HRAS^G12V is given as “almost completely abolished”.
